Source: ChEMBL document CHEMBL1201862, “PubChem BioAssay data set” (2004)
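48-hour exposure; five concentrations; linearly interpolated endpoints. The concentration for 50% growth inhibition is given as GI50.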 The source made the active and inactive calls. Rule as the data show it: active = GI50 up to about 1.1 µM and inactive = higher.

How the values were obtained:
Test in all cases: NCI anticancer screen, dose series, 48 h
XF498 = tested on: XF498
OVCAR-5 = tested on: OVCAR-5
OVCAR-3 = tested on: OVCAR-3
UO-31 = tested on: UO-31
SF-268 = tested on: SF-268
A498 = tested on: A498
KM-20L2 = tested on: KM-20L2
SK-OV-3 = tested on: SK-OV-3
SK-MEL-28 = tested on: SK-MEL-28
ACHN = tested on: ACHN
OVCAR-8 = tested on: OVCAR-8
HCT-116 = tested on: HCT-116
SF-539 = tested on: SF-539
SNB-19 = tested on: SNB-19
LOX IMVI = tested on: LOX IMVI
HCC 2998 = tested on: HCC 2998
LXFL 529 = tested on: LXFL 529
SNB-78 = tested on: SNB-78
UACC-62 = tested on: UACC-62
SF-295 = tested on: SF-295
HOP-62 = tested on: HOP-62
CAKI-1 = tested on: CAKI-1
IGROV-1 = tested on: IGROV-1
RPMI-8226 = tested on: RPMI-8226
OVCAR-4 = tested on: OVCAR-4
SNB-75 = tested on: SNB-75
HL-60 = tested on: HL-60
HT-29 = tested on: HT-29
M14 = tested on: M14
SN12C = tested on: SN12C
TK-10 = tested on: TK-10
KM12 = tested on: KM12
NCI-H226 = tested on: NCI-H226
U-251 = tested on: U-251
A549 = tested on: A549
CCRF-CEM = tested on: CCRF-CEM
HOP-18 = tested on: HOP-18
HOP-92 = tested on: HOP-92
SW-620 = tested on: SW-620
NCI-H522 = tested on: NCI-H522
NCI-H23 = tested on: NCI-H23
MOLT-4 = tested on: MOLT-4
NCI-H460 = tested on: NCI-H460
DLD-1 = tested on: DLD-1
DMS-273 = tested on: DMS-273
UACC-257 = tested on: UACC-257
DMS-114 = tested on: DMS-114
COLO 205 = tested on: COLO 205
786-0 = tested on: 786-0
Malme-3M = tested on: Malme-3M
K562 = tested on: K562
SR = tested on: SR
RXF 393 = tested on: RXF 393
M19-MEL = tested on: M19-MEL
EKVX = tested on: EKVX
SK-MEL-5 = tested on: SK-MEL-5
SK-MEL-2 = tested on: SK-MEL-2

Measured: GI50

COC(=O)/C(=C1\OC(=O)C(c2ccc(Cl)cc2)=C1O)c1ccc(Cl)cc1
inactive: XF498 16.9 µM | OVCAR-5 31.5 µM | OVCAR-3 27.8 µM | UO-31 28.7 µM | SF-268 22.3 µM | A498 16.9 µM | KM-20L2 28.6 µM | SK-OV-3 28.8 µM | SK-MEL-28 31 µM | ACHN 23.2 µM | OVCAR-8 31.7 µM | HCT-116 19.8 µM | SF-539 23.4 µM | SNB-19 27.7 µM | LOX IMVI 21.3 µM | HCC 2998 28.7 µM | LXFL 529 26.6 µM | SNB-78 26.4 µM | UACC-62 17.9 µM | SF-295 19.2 µM | HOP-62 17.7 µM | CAKI-1 23 µM | IGROV-1 52 µM | RPMI-8226 19.6 µM | OVCAR-4 9.71 µM | SNB-75 22.8 µM | HL-60 7.6 µM | HT-29 30 µM | M14 31.2 µM | SN12C 30.5 µM | TK-10 31 µM | KM12 23.8 µM | NCI-H226 21.8 µM | U-251 24.3 µM | A549 24.8 µM | CCRF-CEM 24.2 µM | HOP-18 21 µM | HOP-92 17.8 µM | SW-620 35.7 µM | NCI-H522 17.2 µM | NCI-H23 16 µM | MOLT-4 22.5 µM | NCI-H460 26.1 µM | DLD-1 29.4 µM | DMS-273 13.2 µM | UACC-257 16.5 µM | DMS-114 15.8 µM | COLO 205 18.9 µM | 786-0 36.1 µM | Malme-3M 16.2 µM | K562 27 µM | SR 25.8 µM | RXF 393 21.5 µM | M19-MEL 22.1 µM | EKVX 23.7 µM

CC1=C2CCCC2=C/C(=N/Nc2ccc([N+](=O)[O-])cc2[N+](=O)[O-])CC1
inactive: XF498 > 100 µM | OVCAR-5 > 100 µM | OVCAR-3 > 100 µM | UO-31 > 100 µM | SF-268 > 100 µM | SK-MEL-5 > 100 µM | KM-20L2 > 100 µM | SK-OV-3 > 100 µM | SK-MEL-28 > 100 µM | ACHN > 100 µM | OVCAR-8 > 100 µM | HCT-116 > 100 µM | SF-539 > 100 µM | SNB-19 > 100 µM | LOX IMVI > 100 µM | LXFL 529 > 100 µM | SNB-78 > 100 µM | UACC-62 > 100 µM | SF-295 > 100 µM | HOP-62 > 100 µM | CAKI-1 > 100 µM | IGROV-1 > 100 µM | RPMI-8226 > 100 µM | OVCAR-4 > 100 µM | SNB-75 45.2 µM | HL-60 > 100 µM | HT-29 > 100 µM | M14 > 100 µM | SN12C > 100 µM | TK-10 > 100 µM | KM12 > 100 µM | NCI-H226 > 100 µM | U-251 > 100 µM | A549 > 100 µM | CCRF-CEM > 100 µM | HOP-18 > 100 µM | HOP-92 > 100 µM | SW-620 > 100 µM | NCI-H522 > 100 µM | SK-MEL-2 27.9 µM | NCI-H23 > 100 µM | MOLT-4 > 100 µM | NCI-H460 > 100 µM | DLD-1 > 100 µM | DMS-273 > 100 µM | UACC-257 > 100 µM | DMS-114 > 100 µM | COLO 205 > 100 µM | 786-0 > 100 µM | Malme-3M > 100 µM | K562 > 100 µM | SR > 100 µM | RXF 393 > 100 µM | M19-MEL > 100 µM | EKVX > 100 µM
